Legend:
[1] = tested on: gastric antrum of conscious dogs; assay: Gastric antral motility by implanted force transducers, fasted conscious dogs, oral dosing; type: in vivo, dog
Procedure: (§1) GI motility was assessed by processing the signals from the force transducers implanted in dogs prepared for investigation of motility. Briefly, dogs were anesthetized with isoflurane and the abdominal cavity was opened under aseptic conditions. Extraluminal force transducers (F-12IS, Star Medical, Tokyo) were sutured onto the seromuscular layer of the gastric antrum, the gastric body, the duodenum, and the proximal colon. After the surgery, protective jackets were placed on the dogs and they were housed in individual cages. The dogs were fasted overnight before the experiment and placed in the shield room. The motility was measured with a telemetry system (GTS-800, Star Medical, Tokyo) and data acquired into a personal computer with the acquisition software (Eight Star, Star Medical, Tokyo). After confirmation of interdigestive migrating complex (IMC), the test drugs were administered orally. Gut motility was then recorded more than 5 hours (hrs). To measure the gastric motility quantitatively, motor indexes that represent areas of contractions were calculated. The signals from the force transducer were acquired on a personal computer and analyzed by processing software (Analyze II; StarMedical). In the fasted state, the areas surrounded by the contraction curve and the baseline were determined every 2 hrs after administration. For standardization, the calculated areas were divided by the IMC peak height before administration, and they were used as the motor index (MI). Results are presented as the mean+/− standard error of the mean (S.E.M., N=4-5). Statistical analysis was performed with Dunnett's multiple comparison test using GraphPad Prism (GraphPad Software, Inc.).

[2] = tested on: proximal colon of conscious dogs; assay: Proximal colon motility by implanted force transducers, fasted conscious dogs, oral dosing; type: in vivo; details: dog
Procedure: as §1

[3] = tested on: gastric antrum and duodenum of conscious dogs; assay: Gastro-duodenum contractions by implanted force transducers, fasted conscious dogs, oral dosing; type: in vivo; details: dog, 0.3 mg/kg (dose that enhances proximal colon motility), FIG. 5
Procedure: GI motility was assessed by processing the signals from the force transducers implanted in dogs prepared for investigation of motility. Briefly, dogs were anesthetized with isoflurane and the abdominal cavity was opened under aseptic conditions. Extraluminal force transducers (F-12IS, Star Medical, Tokyo) were sutured onto the seromuscular layer of the gastric antrum, the gastric body, the duodenum, and the proximal colon. After the surgery, protective jackets were placed on the dogs and they were housed in individual cages. The dogs were fasted overnight before the experiment and placed in the shield room. The motility was measured with a telemetry system (GTS-800, Star Medical, Tokyo) and data acquired into a personal computer with the acquisition software (Eight Star, Star Medical, Tokyo). […] Gut motility was then recorded more than 5 hours (hrs). To measure the gastric motility quantitatively, motor indexes that represent areas of contractions were calculated. The signals from the force transducer were acquired on a personal computer and analyzed by processing software (Analyze II; StarMedical). In the fasted state, the areas surrounded by the contraction curve and the baseline were determined every 2 hrs after administration. For standardization, the calculated areas were divided by the IMC peak height before administration, and they were used as the motor index (MI). […]

COc1cc(N)c(Cl)cc1C(=O)NC1CCN(CCCOc2ccc(F)cc2)CC1OC (stereo not drawn) [Cisapride, cisapride]
gastric antral motility ([1]; dog, fasted, oral, 1 mg/kg, FIG. 2): significantly increased gastric antral motility

CCOc1cc(N)c(Cl)cc1C(=O)NCC1CN(Cc2ccc(F)cc2)CCO1 (stereo not drawn) [mosapride]
gastric antral motility ([1]; dog, fasted, oral, 3 mg/kg, FIG. 3): tended to increase the antral motility

COCCCN1CCC(NC(=O)c2cc(Cl)c(N)c3c2OCC3)CC1 [prucalopride]
gastric antral motility ([1]; dog, fasted, oral, 0.1 mg/kg, FIG. 5): stimulated gastric antral motility
contractions of proximal colon ([2]; 0.1 mg/kg, FIG. 5): did not affect contractions of proximal colon
colonic motor activity ([2]; 0.3 mg/kg, FIG. 5): enhanced the colonic motor activity
gastro-duodenum contractions [3]: induced excessive gastro-duodenum contractions

O=C(O)C1(CN2CCC(COc3noc4cccc(OCC(F)(F)F)c34)CC2)CCOCC1 [Compound A, 4-{[4-({[4-(2,2,2-trifluoroethoxy)-1,2-benzisoxazol-3-yl]-oxy}methyl)piperidin-1-yl]methyl}tetrahydro-2H-pyran-4-carboxylic acid]
effects on GI motility / potency relative to other 5-HT4 agonists (cisapride, mosapride, tegaserod) ([1]; dog GI motility models): more than 100 times
potency relative to cisapride in enhancing gastric antral motility ([1]; dog, fasted, oral): approximately 1000 times
minimum effective dose, change in motor index (MI) of gastric antral motility ([1]; dog, fasted, oral, 0 to 2 hour period after administration, statistical significance (Dunnett)): 1 micro g/kg
gastric antral motor activity ([1]; dog, fasted, oral, 0.1-10 micro g/kg, FIG. 1): increased the gastric antral motor activity in dose dependent manner
amplitude and frequency of contractions in the proximal colon ([2]; 1 micro g/kg, FIG. 4): enhanced
occurrence of giant migrating contractions ([2]; after treatment): facilitated the occurrence of giant migrating contractions
